Data as given in patent US20250140406A1, “CLASSIFYING TUMORS AND PREDICTING RESPONSIVENESS” (Oncocyte Corporation, priority 2022, published 2025).
Square brackets hold non-standard residues; d marks the D form. Peptide text beside a SMILES is read from it.

Key:
[1] = test system: cancer cell lines classified IM, MSL, M; assay: PRISM screen compound sensitivity correlated with IM, MSL and M subtype of cell lines (101 gene signature); type: cell-based; conditions: for IM Corr test: correlation of PRISM compound sensitivity with IM subtype correlation; for M Corr test: correlation of PRISM compound sensitivity with M subtype correlation; for MSL Corr test: correlation of PRISM compound sensitivity with MSL subtype correlation; for TNBCType test: test data set
[2] = test system: cancer cell lines, DetermaIO classes; assay: Association of PRISM compound sensitivity with DetermaIO (DTIO) cell line classes; type: cell-based
[3] = subtype (IM, MSL or M) with which compound sensitivity is negatively correlated, training cell set (371 cell lines), 101 gene signature
[4] = correlation of PRISM compound sensitivity with DTIO; test cell set
[5] = correlation of PRISM compound sensitivity with DTIO; training cell set
[6] = correlation of PRISM compound sensitivity with DTIO (DetermaIO); test cell set (188 cell lines)
[7] = correlation of PRISM compound sensitivity with DTIO (DetermaIO); training cell set (371 cell lines)
[8] = correlation of compound sensitivity with DTIO; test set
[9] = correlation of compound sensitivity with DTIO; training set
[10] = subtype (IM, MSL or M) assigned to the compound by negative correlation of PRISM sensitivity with subtype, training cell set (371 cell lines), 101 gene signature
[11] = correlation of PRISM compound sensitivity with DTIO; test cell set (188 cell lines)
[12] = correlation of PRISM compound sensitivity with DTIO; training cell set (371 cell lines)
[13] = classification of association of compound sensitivity with IM, MSL and M cell line classes, training data set
[14] = association of compound sensitivity with DetermaIO classes; test data set
[15] = association of compound sensitivity with DetermaIO classes; training data set
[16] = classification of association of compound sensitivity with IM, MSL and M cell line classes

SMILES	IM Corr test ([1]; test cell set (188 cell lines))	M Corr test ([1]; test cell set (188 cell lines))	MSL Corr test ([1]; test cell set (188 cell lines))	DTIO Corr test [2, 4]	DTIO Corr train [2, 5]	further results
CN1C(=O)N(c2cc(Cl)cc(Cl)c2)C(=O)[C@]12CN(Cc1cc(C(=O)O)cs1)C[C@H]2c1ccc(C#N)cc1 [BMS-587101]	−0.05699	0.1367	−0.03676	−0.08591	0.01986	TNBCType train [1, 3]: MSL
Cc1c(NC(=O)OC[C@@H]2COCCN2)cn2ncnc(Nc3ccc4c(cnn4Cc4cccc(F)c4)c3)c12 [BMS-599626]	−0.1901	0.2776	0.4191	−0.02871	−0.07697	DTIO Corr test ([2]; correlation of compound sensitivity with DetermaIO (DTIO), test set): −0.02871; DTIO Corr train ([2]; correlation of compound sensitivity with DetermaIO (DTIO), training set): −0.07697
COc1cccc(Nc2ncnn3ccc(CN4CC[C@@H](N)[C@H](O)C4)c23)c1 [BMS-690514]	−0.1648	0.2486	0.3466			DTIO Corr test [2, 6]: 0.01346; DTIO Corr train [2, 7]: −0.1666; DTIO Corr test ([2]; correlation of compound sensitivity with DTIO, test set): 0.01346; DTIO Corr train ([2]; correlation of compound sensitivity with DTIO, training set): −0.1666; DTIO Corr test [2, 8]: 0.01346; DTIO Corr train [2, 9]: −0.1666
COc1cc(C(=O)c2c(C)oc3c(O)c(OC)ccc23)cc(OC)c1OC [BNC105]				−0.1135	−0.1119	IM Corr test ([1]; test cell set): −0.07446; M Corr test ([1]; test cell set): −0.08585; MSL Corr test ([1]; test cell set): −0.09188; TNBCType train ([1]; subtype (IM, MSL or M) with which PRISM compound sensitivity is negatively correlated, training cell set, 101 gene signature): MSL
O=C1/C(=C/c2ccccc2)C[C@@]2(O)[C@H]3Cc4ccc(O)c5c4[C@@]2(CCN3CC2CC2)[C@H]1O5 [BNTX]	−0.1371	0.09323	0.1062	−0.1085	−0.1416	
CC(C)C[C@@H]1NC(=O)[C@@H](C(C)C)NC(=O)[C@@H]2CCCN2C(=O)[C@@H](CC(=O)O)NC(=O)[C@@H](Cc2c[nH]c3ccccc23)NC1=O [BQ-123] (cyclo(L[dW][dD]P[dV]))	0.0449	−0.1374	−0.1421	0.07641	0.04394	TNBCType train [1, 3]: MSL
O=C(Nc1cccc(Nc2ncc(Br)c(NCCc3cnc[nH]3)n2)c1)N1CCCC1 [BX-912]				0.03523	0.04083	IM Corr test ([1]; test cell set): 0.1542; M Corr test ([1]; test cell set): −0.2367; MSL Corr test ([1]; test cell set): −0.03732
Cc1ccc(-n2sc(=O)n(Cc3ccc(F)cc3)c2=O)cc1 [CCG-50014]	0.03964	−0.1198	−0.2063	−0.03813	0.0404	
Nc1nc(-c2ccc(Cl)c(Cl)c2)c(-c2ccncc2)s1 [CGH2466]	−0.07415	0.03776	0.04331			DTIO Corr test [2, 6]: −0.01803; DTIO Corr train [2, 7]: −0.09319
CCCCCCCCCCC(C)(C)C(=O)Nc1c(OC)cc(OC)cc1OC [CI-976]	0.06082	−0.082	−0.03363			TNBCType train [1, 10]: MSL; DTIO Corr test [2, 6]: 0.03532; DTIO Corr train [2, 7]: 0.09198
C=CC(=O)Nc1cccc(Nc2nc(Nc3ccc(Oc4ccnc(C(=O)NC)c4)cc3)ncc2F)c1 [CNX-774]				0.1389	0.07802	IM Corr test ([1]; test cell set): 0.09358; M Corr test ([1]; test cell set): −0.09506; MSL Corr test ([1]; test cell set): 0.02463
O=C(O)C1CN(CCCP(=O)(O)O)CCN1 (stereo not drawn) [CPP]	−0.04467	−0.01154	−0.2411			TNBCType train [1, 10]: MSL; DTIO Corr test [2, 6]: −0.04842; DTIO Corr train [2, 7]: −0.04563
CCn1c(=O)[nH]c2cc(Cl)c(Cl)cc21 [DCEBIO]	0.1207	−0.1198	−0.1352			DTIO Corr test [2, 6]: 0.121; DTIO Corr train [2, 7]: 0.1577
CC(=O)Nc1ccc(Cc2ccc(NC(C)=O)cc2)cc1 [FH1]				−0.06073	−0.08253	IM Corr test ([1]; test cell set): −0.11; M Corr test ([1]; test cell set): 0.01237; MSL Corr test ([1]; test cell set): −0.1426
NC(=O)c1cccc(-c2cc(Nc3ccc(OC(F)(F)F)cc3)ncn2)c1 [GNF-2]	−0.03304	−0.07177	−0.05938			DTIO Corr test [2, 11]: −0.02831; DTIO Corr train [2, 12]: −0.02935
CCCCC#Cc1nc(NC)c2ncn([C@@H]3O[C@H](CO)[C@@H](O)[C@H]3O)c2n1 [HEMADO]				−0.09381	−0.08651	IM Corr test ([1]; test cell set): −0.0662; M Corr test ([1]; test cell set): 0.05737; MSL Corr test ([1]; test cell set): 0.1849
O=C1[C@H](Cc2ccc(O)cc2)N2C(=O)CCN(C(=O)NCc3ccccc3)[C@H]2CN1Cc1cccc2ccccc12 [ICG-001]	0.1415	−0.2223	0.01929			DTIO Corr test [2, 11]: 0.1635; DTIO Corr train [2, 12]: 0.1783; DTIO Corr test [2, 8]: 0.1635; DTIO Corr train [2, 9]: 0.1783
O=C(O)CCC/C=C\C[C@@H]1CO[C@H](C(F)(F)F)O[C@@H]1c1ccccc1O [ICI-185,282]				−0.02205	−0.09302	IM Corr test ([1]; test cell set): −0.05673; M Corr test ([1]; test cell set): 0.07129; MSL Corr test ([1]; test cell set): 0.1418
NC(=O)CCCCn1ccc(NC(N)=NCC(F)(F)F)n1 [ICI-162846]	−0.1537	0.1647	0.0517	−0.05711	−0.09255	
O=C(O)CNC(=O)c1c(O)c2ccccc2n(Cc2ccccc2)c1=O [IOX2]	−0.04037	0.09066	0.01906			DTIO Corr test [2, 11]: −0.06501; DTIO Corr train [2, 12]: −0.0409
Cc1cc(C)cc(C(=O)N(C)[C@H](Cc2ccc(-c3ccccc3)cc2)C(=O)N[C@@H](Cc2c[nH]c3ccccc23)C(=O)O)c1 [IRL-2500]	−0.01191	0.007861	−0.1214			DTIO Corr test [2, 11]: 0.02691; DTIO Corr train [2, 12]: −0.06473
O=C(Nc1ccc(C(F)(F)F)cn1)N1CCN(c2ncccc2C(F)(F)F)CC1 [JNJ-17203212]				−0.00666	−0.1037	IM Corr test ([1]; test cell set): −0.03139; M Corr test ([1]; test cell set): 0.03655; MSL Corr test ([1]; test cell set): 0.142
CCCCCOc1c(OC)ccc2cc(C(=O)NCc3ccc4c(c3)OCO4)c(=O)[nH]c12 [JTE-907]	−0.05167	0.08725	−0.01924			DTIO Corr test [2, 6]: −0.04389; DTIO Corr train [2, 7]: −0.131
Clc1ccc(C2(c3ccc(-c4cn[nH]c4)cc3)CCNCC2)cc1 [K12040459]						TNBCType train [1, 13]: MSL; DTIO Corr test [2, 14]: 0.003574; DTIO Corr train [2, 15]: 0.04812
C[C@@H]1NC(C)(C)CO[C@@]1(O)c1cccc(Cl)c1 [K13394247]						TNBCType test [1, 16]: MSL; DTIO Corr test [2, 14]: −0.04236; DTIO Corr train [2, 15]: 0.0598
C[C@@H](Oc1ccc2[nH]nc(/C=C/c3cnn(CCO)c3)c2c1)c1c(Cl)cncc1Cl [K17203476]						TNBCType test [1, 16]: MSL; DTIO Corr test [2, 14]: −0.0838; DTIO Corr train [2, 15]: −0.1449
O=C(NCc1cccc(O)c1)Nc1nc(-c2ccncc2)cs1 [K19333160]						TNBCType test [1, 16]: MSL; TNBCType train [1, 13]: MSL; DTIO Corr test [2, 14]: 0.08122; DTIO Corr train [2, 15]: 0.04633
